Experimental data as given in ChEMBL document CHEMBL1201862, “PubChem BioAssay data set” (2004).
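Growth conditions: 96-well plates. Treatment: test compound, 48 hours, 5 concentrations. Analysis: linear interpolation between bracketing concentrations; unreached endpoints set to highest concentration. GI50 marks 50% less growth.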 Calls of active or inactive are those of the source. Rule as the data show it: active = GI50 up to about 1.1 µM and inactive = higher.

Tests used:
Assay in all cases: growth of human tumour cells (NCI), 48 h
ACHN = tested on: ACHN
CAKI-1 = tested on: CAKI-1
COLO 205 = tested on: COLO 205
DU-145 = tested on: DU-145
EKVX = tested on: EKVX
HL-60 = tested on: HL-60
Hs-578T = tested on: Hs-578T
IGROV-1 = tested on: IGROV-1
M14 = tested on: M14
MCF7 = tested on: MCF7
MDA-MB-435 = tested on: MDA-MB-435
NCI-H522 = tested on: NCI-H522
PC-3 = tested on: PC-3
SF-268 = tested on: SF-268
SF-295 = tested on: SF-295
SK-MEL-5 = tested on: SK-MEL-5
SNB-19 = tested on: SNB-19
SNB-75 = tested on: SNB-75
T47D = tested on: T47D
UACC-62 = tested on: UACC-62

Measured: GI50

COC(=O)C1=C(C=O)C2C=CC1C2 (stereo not given)
inactive: ACHN > 67.9 µM | CAKI-1 44.2 µM | COLO 205 46.3 µM | DU-145 > 100 µM | EKVX 98.4 µM | HL-60 21.3 µM | Hs-578T > 100 µM | IGROV-1 > 100 µM | M14 45.1 µM | MCF7 > 100 µM | MDA-MB-435 > 100 µM | NCI-H522 44.5 µM | PC-3 > 100 µM | SF-268 > 83.4 µM | SF-295 > 100 µM | SK-MEL-5 > 100 µM | SNB-19 > 100 µM | SNB-75 28.6 µM | T47D > 100 µM | UACC-62 > 93.1 µM

C[C@H]1[C@H](C)CC[C@]2(C(=O)OC3OC(CO)C(O)C(O)C3O)CC[C@]3(C)C(=CC[C@@H]4[C@@]5(C)C[C@@H](O)[C@@H]6OC(=O)c7cc(O)c(O)c(O)c7-c7c(cc(O)c(O)c7O)C(=O)OC[C@@]6(CO)[C@@H]5CC[C@]43C)[C@H]12 (stereo not given in full)
inactive: ACHN > 100 µM | CAKI-1 47.8 µM | COLO 205 > 100 µM | DU-145 > 100 µM | EKVX > 100 µM | HL-60 39.2 µM | Hs-578T > 100 µM | IGROV-1 > 100 µM | M14 > 100 µM | MCF7 18.6 µM | MDA-MB-435 19.6 µM | NCI-H522 > 59.3 µM | PC-3 > 88.3 µM | SF-268 > 100 µM | SF-295 > 100 µM | SK-MEL-5 > 84.9 µM | SNB-19 > 100 µM | SNB-75 > 100 µM | T47D > 100 µM | UACC-62 > 87.7 µM

OC1(c2cccs2)c2cccc(Cl)c2C(O)(c2cccs2)c2c(Cl)cccc21 (stereo not given)
inactive: ACHN > 100 µM | CAKI-1 > 100 µM | COLO 205 > 100 µM | DU-145 > 100 µM | EKVX > 100 µM | HL-60 > 100 µM | Hs-578T 9.84 µM | IGROV-1 88.5 µM | M14 > 100 µM | MCF7 > 100 µM | MDA-MB-435 > 100 µM | NCI-H522 96.6 µM | PC-3 99.3 µM | SF-268 22.3 µM | SF-295 33.1 µM | SK-MEL-5 > 100 µM | SNB-19 33.2 µM | SNB-75 47.4 µM | T47D > 100 µM | UACC-62 34.3 µM
